The target in experiment [1] is T1, Superoxide dismutase [Cu-Zn] (Bovine, UniProt P00442). The experiment in a line: SOD Assay (Fluorimetric Analysis). Conditions: pH 8; 37 °C. The procedure: SOD activity of the purified samples was determined by the SOD assay kit using (2-(4-iodophenyl)-3-(4nitrophenyl)-5-(2,4-disulphenyl)-2H-tetrazolium, monosodium salt) [WST] which is a colorimetric assay that monitors the rate of inhibition of WST to a water soluble formazan dye.

Experiment [2] deals with T1, Superoxide dismutase [Cu-Zn]. Nature of the experiment: SOD Assay (Kinetic Analysis).

SMILES strings stand for the structures. Residues, ends and D or L forms follow the SMILES beside them.

T1 sequence (P00442 whole entry): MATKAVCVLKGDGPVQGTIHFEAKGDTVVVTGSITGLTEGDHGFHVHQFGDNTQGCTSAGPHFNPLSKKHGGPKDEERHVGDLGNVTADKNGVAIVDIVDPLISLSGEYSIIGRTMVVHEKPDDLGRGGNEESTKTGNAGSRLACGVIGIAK

Consider `CC[C@H](C)[C@H](NC(=O)[C@H](C)NC(=O)CNC(=O)[C@H](CCCCN)NC(=O)[C@H](CC(N)=O)NC(=O)[C@H](CO)NC(=O)CN)C(=O)N[C@H](C(=O)NCC(=O)N[C@@H](CC(C)C)C(=O)N[C@@H](CCSC)C(=O)N[C@H](C(=O)NCC(=O)O)C(C)C)[C@@H](C)CC` [Aβ (25-37)] (H-GSNKGAIIGLMVG-OH), for which the affinity in experiment [1], expressed as Kd, was 9.38 µM. Further, in experiment [2], the affinity, expressed as Ki, was 14.4 µM.

For the molecule `CC[C@H](C)[C@H](NC(=O)[C@H](C)NC(=O)CN)C(=O)N[C@H](C(=O)NCC(=O)O)[C@@H](C)CC` [Aβ (29-33)] (H-GAIIG-OH), the dissociation constant Kd (usually the free concentration of one partner at which half of the binding sites on the other are occupied at equilibrium, for simple one-to-one binding) in experiment [1] turned out to be 15.7 µM. For the same molecule, the affinity in experiment [2], expressed as Ki, was 13.2 µM.

For the origin of these results see BindingDB's records for doi:10.3109/14756366.2012.680063 (Rhodes University, 2013).
